Laboratory results reported in patent publication US10752587B2, “Homobispiperidinyl derivatives as liver X receptor beta agonists, compositions and their use” (Merck Sharp & Dohme Corp., priority 2015, dated 2020).
Read-outs that look alike come from different tables or passages of the source.

Legend:
[1] = target: T1, glutathione-S-transferase (GST) tagged LXRbeta LBD (ligand binding domain) (Homo sapiens, UniProt P55055); assay: LanthaScreen TR-FRET Liver X Receptor Coactivator Assay, co-activator recruitment to LXRbeta LBD; format: biochemical; conditions: for Emax: read-out: LXR beta Activity @ max dose (%); for EC50: potency (Inflection Point, IP), co-activator recruitment to LXRbeta LBD, in relation to T0901317
T1 construct: purchased Invitrogen pv4658.pps
T1 sequence (P55055 222-460 limits assumed): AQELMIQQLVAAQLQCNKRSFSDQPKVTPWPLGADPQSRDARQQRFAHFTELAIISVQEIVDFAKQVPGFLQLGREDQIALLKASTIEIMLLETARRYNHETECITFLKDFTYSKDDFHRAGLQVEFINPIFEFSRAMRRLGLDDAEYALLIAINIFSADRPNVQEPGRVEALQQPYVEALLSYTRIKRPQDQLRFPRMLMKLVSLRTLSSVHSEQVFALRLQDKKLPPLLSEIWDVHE
Method in brief: (§1)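 Efficacy (Emax) and inflection-point potency were scaled to reference agonist T0901317, acting on both LXR subtypes. Ligand-driven coactivator peptide recruitment was detected by TR-FRET after room-temperature incubation with terbium anti-GST antibody.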

[2] = target: T2, glutathione-S-transferase (GST) tagged LXRalpha LBD (ligand binding domain) (Homo sapiens, UniProt Q13133); assay: LanthaScreen TR-FRET Liver X Receptor Coactivator Assay, co-activator recruitment to LXRalpha LBD; format: biochemical; conditions: for Emax: read-out: LXR alpha Activity @ max dose (%); for LXR alpha IP (nM) / EC50: potency (Inflection Point, IP), co-activator recruitment to LXRalpha LBD, in relation to T0901317
T2 construct: purchased Invitrogen pv4655
T2 sequence (Q13133 209-447 limits assumed): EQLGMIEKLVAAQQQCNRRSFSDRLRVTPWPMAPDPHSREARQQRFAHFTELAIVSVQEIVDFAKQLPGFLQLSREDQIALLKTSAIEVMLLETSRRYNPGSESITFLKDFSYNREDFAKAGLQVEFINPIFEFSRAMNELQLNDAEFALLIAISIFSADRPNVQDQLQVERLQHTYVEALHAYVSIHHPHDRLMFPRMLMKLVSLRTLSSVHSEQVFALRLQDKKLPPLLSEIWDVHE
Method in brief: as §1

[3] = efficacy at max dose, in relation to reference dual agonist T0901317

| Structure (SMILES) | Emax [1, 3] [%] | EC50 ([1]; read-out: LXR beta IP) [nM] | Emax [2, 3] [%] | LXR alpha IP (nM) [2] | EC50 ([1]; LXR beta IP (nM)) [nM] | Emax [1] [%] | EC50 ([2]; read-out: LXR alpha IP) [nM] | Emax [2] [%] | LXR beta Activity @ max dose (%) [1, 3] [%] | LXR alpha Activity @ max dose (%) [2, 3] [%] | EC50 ([2]; LXR alpha IP (nM)) [nM] |
| --- | --- | --- | --- | --- | --- | --- | --- | --- | --- | --- | --- |
| COc1cccc([C@@](O)(C(=O)N2CC(CC3CCN(c4ccc(C(=O)N(C)C)c(Cl)n4)CC3)C2)C(F)(F)F)c1 [Example 7-45, 2-chloro-N,N-dimethyl-6-[4-({1-[(2R)-3,3,3-trifluoro-2-hydroxy-2-(3-methoxyphenyl)propanoyl]azetidin-3-yl}methyl)piperidin-1-yl]pyridine-3-carboxamide] | 92 | 22 | 14 | NO IP |  |  |  |  |  |  |  |
| CN(C)C(=O)c1ccc(N2CCC(SC3CCN(C(=O)[C@](O)(c4cccc(OC(F)(F)F)c4)C(F)(F)F)CC3)CC2)nc1Cl [Example 9-1, (R)-2-chloro-N,N-dimethyl-6-(4-(1-(3,3,3-trifluoro-2-hydroxy-2-(3-(trifluoromethoxy)phenyl)propanoyl)piperidin-4-ylthio)piperidin-1-yl)nicotinamide] |  |  |  |  | 13 | 60 | 546 | 21 |  |  |  |
| COc1cccc([C@@](O)(C(=O)N2CCC(CC3CCN(c4ccc(C(=O)N(C)C)c(Cl)c4)CC3)CC2)C(F)(F)F)c1 (single isomer, unassigned) [Example 2-34] | 69 | 494 | 1 | NO IP |  |  |  |  |  |  |  |
| CNC(=O)c1ccc(N2CCC(CC3CCN(C(=O)C(O)(c4cccc(C(F)(F)F)c4)C(F)(F)F)CC3)CC2)cc1Cl (stereo not shown) [Example 7-35, 2-chloro-N-methyl-4-{4-[(1-{3,3,3-trifluoro-2-hydroxy-2-[3-(trifluoromethyl)phenyl]propanoyl}piperidin-4-yl)methyl]piperidin-1-yl}benzamide] | 78 | 96 | 25 |  |  |  | 784 |  |  |  |  |
| CN(C)C(=O)c1ccc(N2CCC(CC3CCN(C(=O)C(O)(c4ccnc(C(F)(F)F)c4)C(F)(F)F)CC3)CC2)cc1Cl (stereo not shown) [Example 2-40, 2-chloro-N,N-dimethyl-4-{4-[(1-{3,3,3-trifluoro-2-hydroxy-2-[2-(trifluoromethyl)pyridin-4-yl]propanoyl}piperidin-4-yl)methyl]piperidin-1-yl}benzamide] | 34 | 72 | 9 | NO IP |  |  |  |  |  |  |  |
| CN(C)C(=O)c1ccc(N2CCC(CC3CCN(C(=O)[C@](O)(c4cccc(Cl)c4)C(F)(F)F)CC3)CC2)cc1 [Example 2-146, 4-[4-({1-[(2R)-2-(3-chloro-phenyl)-3,3,3-trifluoro-2-hydroxy-propanoyl]piperidin-4-yl}methyl)piperidin-1-yl]-N,N-dimethyl-benzamide] |  | 33 |  | NO IP |  |  |  |  | 64 | 10 |  |
| CCOc1cccc([C@@](O)(C(=O)N2CCC(C)(CC3CCN(c4ccc(C(=O)N(C)C)c(C)c4)CC3)CC2)C(F)(F)F)c1 [Example 2-79, 4-[4-({1-[(2R)-2-(3-ethoxy-phenyl)-3,3,3-trifluoro-2-hydroxy-propanoyl]-4-methylpiperidin-4-yl}methyl)piperidin-1-yl]-N,N,2-trimethyl-benzamide] | 30 | 40 | 0 | NO IP |  |  |  |  |  |  |  |
| Cc1cc(N2CCC(CC3(C)CCN(C(=O)[C@](O)(c4cccc(Cl)c4)C(F)(F)F)CC3)CC2)ccc1C(=O)N(C)C [Example 2-76, 4-[4-({1-[(2R)-2-(3-chloro-phenyl)-3,3,3-trifluoro-2-hydroxy-propanoyl]-4-methylpiperidin-4-yl}methyl)piperidin-1-yl]-N,N,2-trimethyl-benzamide] | 46 | 14 | 4 | NO IP |  |  |  |  |  |  |  |
| CNC(=O)c1ccc(N2CCC(CC3CCN(C(=O)[C@](O)(c4ccccc4)C(F)(F)F)CC3)CC2)nc1Cl [Example 7-141, 2-chloro-N-methyl-6-[4-({1-[(2R)-3,3,3-trifluoro-2-hydroxy-2-phenylpropanoyl]piperidin-4-yl}methyl)piperidin-1-yl]pyridine-3-carboxamide] | 102 | 13 | 47 |  |  |  | 173 |  |  |  |  |
| COc1ccccc1C1(C(=O)N2CCC(CC3CCN(c4ccc(C(=O)N(C)C)c(Cl)n4)CC3)CC2)CCC1 [Example 7-57, 2-chloro-6-{4-[(1-{[1-(2-methoxyphenyl)cyclobutyl]carbonyl}piperidin-4-yl)methyl]piperidin-1-yl}-N,N-dimethylpyridine-3-carboxamide] | 123 | 16 | 39 |  |  |  | 438 |  |  |  |  |
| CNC(=O)c1ccc(N2CCC(CC3CCN(C(=O)[C@](O)(c4cccc(C(F)(F)F)c4)C(F)(F)F)CC3)CC2)cc1Cl [Example 7-128, 2-chloro-N-methyl-4-{4-[(1-{(2R)-3,3,3-trifluoro-2-hydroxy-2-[3-(trifluoromethyl)phenyl]propanoyl}piperidin-4-yl)methyl]piperidin-1-yl}benzamide] | 78 | 51 | 30 |  |  |  | 1180 |  |  |  |  |
| CCOc1cccc([C@@](O)(C(=O)N2CC(CC3CCN(c4ccc(C(=O)NC)c(Cl)c4)CC3)C2)C(F)(F)F)c1 [Example 7-39, 2-chloro-4-[4-({1-[(2R)-2-(3-ethoxyphenyl)-3,3,3-trifluoro-2-hydroxypropanoyl]azetidin-3-yl}methyl)piperidin-1-yl]-N-methylbenzamide] | 59 | 91 | 0 | NO IP |  |  |  |  |  |  |  |
| CN(C)CCNC(=O)c1ccc(N2CCC(CC3CCN(C(=O)[C@](O)(c4ccccc4)C(F)(F)F)CC3)CC2)cc1Cl [Example 4-16, 2-chloro-N-[2-(dimethylamino)ethyl]-4-[4-({1-[(2R)-3,3,3-trifluoro-2-hydroxy-2-phenylpropanoyl]piperidin-4-yl}methyl)piperidin-1-yl]benzamide] | 64 | 183 | 28 |  |  |  | 688 |  |  |  |  |
| CN(C)C(=O)c1ccc(N2CCC(CC3CCN(C(=O)C(O)(c4ccccc4)C4CC4)CC3)CC2)nc1Cl (stereo not shown) [Example 7-99, 2-chloro-6-[4-({1-[cyclopropyl(hydroxy)phenylacetyl]piperidin-4-yl}methyl)piperidin-1-yl]-N,N-dimethylpyridine-3-carboxamide] |  |  |  |  | 48 | 74 |  | 20 |  |  | 2790 |
| CNC(=O)c1ccc(N2CCC(CC3CN(C(=O)[C@](O)(c4cccc(OC)c4)C(F)(F)F)C3)CC2)cc1Cl [Example 7-38, 2-chloro-N-methyl-4-[4-({1-[(2R)-3,3,3-trifluoro-2-hydroxy-2-(3-methoxyphenyl)propanoyl]azetidin-3-yl}methyl)piperidin-1-yl]benzamide] | 67 | 136 | 1 | NO IP |  |  |  |  |  |  |  |
| CN(C)C(=O)c1ccc(N2CCC(CC3CCN(C(=O)[C@](O)(c4cccc(OC(F)(F)F)c4)C(F)(F)F)CC3)CC2)nc1Cl [Example 7-75, 2-chloro-N,N-dimethyl-6-{4-[(1-{(2R)-3,3,3-trifluoro-2-hydroxy-2-[3-(trifluoromethoxy)phenyl]propanoyl}piperidin-4-yl)methyl]piperidin-1-yl}pyridine-3-carboxamide] | 67 | 10 | 13 | NO IP |  |  |  |  |  |  |  |
| COc1cc(F)cc([C@@](O)(C(=O)N2CCC(CC3CCN(c4ccc(C(=O)N(C)C)c(Cl)n4)CC3)CC2)C(F)(F)F)c1 [Example 7-101, 2-chloro-N,N-dimethyl-6-[4-({1-[(2R)-3,3,3-trifluoro-2-(3-fluoro-5-methoxyphenyl)-2-hydroxypropanoyl]piperidin-4-yl}methyl)piperidin-1-yl]pyridine-3-carboxamide] | 84 | 4 | 22 |  |  |  | 41 |  |  |  |  |
| CN(C)C(=O)c1ccc(N2CCC(OC3CCN(C(=O)C(F)(F)F)CC3)CC2)cc1Cl [Example 2-29, 2-chloro-N,N-dimethyl-4-(4-{[1-(trifluoro-acetyl)piperidin-4-yl]oxy}piperidin-1-yl)benzamide] | 65 | 3790 | 25 | NO IP |  |  |  |  |  |  |  |
| CN(C)C(=O)c1ccc(N2CCC(CC3CCN(C(=O)[C@](O)(c4ccccc4F)C(F)(F)F)CC3)CC2)cc1Cl [Example 2-85, 2-chloro-N,N-dimethyl-4-[4-({1-[(2R)-3,3,3-trifluoro-2-(2-fluorophenyl)-2-hydroxy-propanoyl]piperidin-4-yl}methyl)piperidin-1-yl]benzamide] | 68 | 17 | 21 |  |  |  | 554 |  |  |  |  |
